# In patent US20260008787A1, “FUSED RING KRAS INHIBITORS FOR TREATING DISEASE” (BLOSSOMHILL THERAPEUTICS, INC., priority 2022, published 2026):
# How the values were obtained:
# [1] = test system: GP2D (KRAS G12D); assay: Cell proliferation assay (CellTiter-Glo, 72 hours), GP2D; assay type: cell-based; details: 384-well, CellTiter-Glo 2.0
# Procedure: (§1) Two thousand KRAS mutant cells per well were seeded in 384-well white plate and then treated with indicated compounds for 72 hours at 37° C. and 5% CO2. Cell proliferation was measured using CellTiter-Glo 2.0 luciferase-based ATP detection assay (Promega, Madison, WI) following the manufacturer's protocol. IC50 values were determined using Prism software (GraphPad Software, San Diego, CA).
# [2] = test system: SW620 (KRAS G12V); assay: Cell proliferation assay (CellTiter-Glo, 72 hours), SW620; assay type: cell-based; details: 384-well, CellTiter-Glo 2.0
# Procedure: as §1
# [3] = test system: AGS (G12D); assay: Cell proliferation assay (CellTiter-Glo, 72 hours), AGS; assay type: cell-based; details: 384-well, CellTiter-Glo 2.0
# Procedure: as §1
# [4] = molecular target: KRAS G12D (Homo sapiens, UniProt P01116, G12D); assay: biochemical
# Chain of KRAS G12D (P01116 1-188 isoform P01116-2 G12D): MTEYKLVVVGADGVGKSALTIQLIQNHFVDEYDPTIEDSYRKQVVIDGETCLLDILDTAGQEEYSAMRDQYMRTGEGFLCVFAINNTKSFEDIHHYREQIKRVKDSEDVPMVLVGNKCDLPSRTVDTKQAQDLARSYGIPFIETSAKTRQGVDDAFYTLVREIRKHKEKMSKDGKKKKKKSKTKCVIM
# [5] = molecular target: KRAS G12V (Homo sapiens, UniProt P01116, G12V); assay: biochemical
# Chain of KRAS G12V (P01116 1-188 isoform P01116-2 G12V): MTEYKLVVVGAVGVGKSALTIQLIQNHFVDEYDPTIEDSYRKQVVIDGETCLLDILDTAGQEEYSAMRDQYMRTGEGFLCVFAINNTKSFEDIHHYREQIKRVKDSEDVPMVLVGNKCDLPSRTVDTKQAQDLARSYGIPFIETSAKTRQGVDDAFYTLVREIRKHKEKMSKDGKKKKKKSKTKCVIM
SMILES,IC50 [1],"IC50 ([2]; Homo sapiens, SW-620, 72 h)",IC50 ([3]; 72 h),IC50 [4],IC50 [5],IC50 [2],IC50 [3],"IC50 ([1]; GP2d, 72 h)"
"Fc1c(-c2c(Cl)ccc3[nH]nc(Cl)c23)nc2c3c(nc(OC[C@@]45CCCN4C[C@H](F)C5)nc13)N1CCCC[C@H]1CO2 (atropisomer, axis not shown) [Example 83, (7S)-12-(3,5-dichloro-1H-indazol-4-yl)-13-fluoro-16-[[(2R,8S)-2-fluoro-1,2,3,5,6,6-4hexahydropyrrolizin-8-yl]methoxy]-9-oxa-2,11,15,17-tetrazatetracyclo[8.7.1.02,7.014,18]octadeca-1 (17),10 (18),11,13,15-pentaene]",1080 nM,> 3000 nM,> 3000 nM,60.4 nM,59.3 nM,–,–,–
"Fc1c(-c2c(Cl)ccc3[nH]nc(Cl)c23)nc2c3c(nc(OC[C@@]45CCCN4C[C@H](F)C5)nc13)N1CCCC[C@H]1CO2 (atropisomer, axis not shown) [Example 84, (7S)-12-(3,5-dichloro-1H-indazol-4-yl)-13-fluoro-16-[[(2R,8S)-2-fluoro-1,2,3,5,6,7-hexahydropyrrolizin-8-yl]methoxy]-9-oxa-2,11,15,17-tetrazatetracyclo[8.7.1.02, 7.014,18]octadeca-1 (17),10 (18),11,13,15-pentaene]",> 3000 nM,–,–,54.5 nM,48 nM,> 3000 nM,> 3000 nM,–
"Nc1nc2c(-c3nc4c5c(nc(OC[C@@]67CCCN6C[C@H](F)C7)nc5c3F)N3CCCC[C@H]3CO4)ccc(F)c2s1 [Example 40, 7-fluoro-4-[(8aS)-4-fluoro-2-{[(2R,7aS)-2-fluorotetrahydro-1H-pyrrolizin-7a(5H)-yl]methoxy}-8,8a,9,10,11,12-hexahydro-7-oxa-1,3,6,12a-tetraazabenzo[4,5]cyclohepta[1,2,3-de]naphthalen-5-yl]-1,3-benzothiazol-2-amine]",–,> 3000 nM,> 3000 nM,30.1 nM,28.2 nM,–,–,> 3000 nM
"Cc1cc(N)nc(-c2nc3c4c(nc(OC[C@@]56CCCN5C[C@H](F)C6)nc4c2F)N2CCCC[C@H]2CO3)c1C(F)(F)F [Example 43, 6-[(8aS)-4-fluoro-2-{[(2R,7aS)-2-fluorotetrahydro-1H-pyrrolizin-7a(5H)-yl]methoxy}-8,8a,9,10,11,12-hexahydro-7-oxa-1,3,6,12a-tetraazabenzo[4,5]cyclohepta[1,2,3-de]naphthalen-5-yl]-4-methyl-5-(trifluoromethyl)pyridin-2-amine]",–,> 3000 nM,> 3000 nM,16.3 nM,12.7 nM,–,–,2120 nM
"C#Cc1c(F)ccc2cc(O)cc(-c3cc4c5c(nc(OC[C@@]67CCCN6C[C@H](F)C7)nc5c3F)N3CCCC[C@H]3CO4)c12 [Example 45, 5-ethynyl-6-fluoro-4-[(8aS)-4-fluoro-2-{[(2R,7aS)-2-fluorotetrahydro-1H-pyrrolizin-7a(5H)-yl]methoxy}-8,8a,9,10,11,12-hexahydropyrido[2′,1′:3,4][1,4]oxazepino[5,6,7-de]quinazolin-5-yl]naphthalen-2-ol]",–,321 nM,621 nM,3.28 nM,2.33 nM,–,–,361 nM
"C#Cc1c(F)ccc2cc(O)cc(-c3nc4c5c(nc(OC[C@@]67CCCN6C[C@H](F)C7)nc5c3F)N[C@@H](C)CO4)c12 [Example 46, 5-ethynyl-6-fluoro-4-[(9S)-4-fluoro-2-{[(2R,7aS)-2-fluorotetrahydro-1H-pyrrolizin-7a(5H)-yl]methoxy}-9-methyl-9,10-dihydro-8H-7-oxa-1,3,6,10-tetraazacyclohepta[1,2,3-de]naphthalen-5-yl]naphthalen-2-ol]",–,414 nM,193 nM,2.1 nM,1.71 nM,–,–,74.8 nM
"C#Cc1c(F)ccc2cc(O)cc(-c3nc4c5c(nc(OC[C@@]67CCCN6C[C@H](F)C7)nc5c3F)N(C)[C@@H](C)CO4)c12 [Example 50, 5-ethynyl-6-fluoro-4-[(9S)-4-fluoro-2-{[(2R,7aS)-2-fluorotetrahydro-1H-pyrrolizin-7a(5H)-yl]methoxy}-9,10-dimethyl-9,10-dihydro-8H-7-oxa-1,3,6,10-tetraazacyclohepta[1,2,3-de]naphthalen-5-yl]naphthalen-2-ol]",–,25.7 nM,28.4 nM,1.71 nM,1.99 nM,–,–,8.94 nM
"C#Cc1c(F)ccc2cc(O)cc(-c3nc4c5c(nc(OC[C@@]67CCCN6C/C(=C\F)C7)nc5c3F)N3CCCC[C@H]3CO4)c12 [Example 52, 5-ethynyl-6-fluoro-4-[(8aS)-4-fluoro-2-{[(2Z,7aS)-2-(fluoromethylidene)tetrahydro-1H-pyrrolizin-7a(5H)-yl]methoxy}-8,8a,9,10,11,12-hexahydro-7-oxa-1,3,6,12a-tetraazabenzo[4,5]cyclohepta[1,2,3-de]naphthalen-5-yl]naphthalen-2-ol]",–,9.2 nM,7.7 nM,2.26 nM,2.22 nM,–,–,1.75 nM
"C#Cc1c(F)ccc2cc(O)cc(-c3nc4c5c(nc(OC[C@@]67CCCN6C[C@H](F)C7)nc5c3F)N3[C@@H](COC[C@@H]3C)CO4)c12 [Example 59, 5-ethynyl-6-fluoro-4-[(8aS,12S)-4-fluoro-2-{[(2R,7aS)-2-fluorotetrahydro-1H-pyrrolizin-7a(5H)-yl]methoxy}-12-methyl-8a,9,11,12-tetrahydro-8H-7,10-dioxa-1,3,6,12a-tetraazabenzo[4,5]cyclohepta[1,2,3-de]naphthalen-5-yl]naphthalen-2-ol]",–,77.2 nM,70.6 nM,2.66 nM,3.08 nM,–,–,12.4 nM
"C#Cc1c(F)ccc2cc(O)cc(-c3nc4c5c(nc(OC[C@@]67CCCN6C[C@H](F)C7)nc5c3F)N(Cc3ccccc3)[C@@H](C)CO4)c12 [Example 74, 4-[(9S)-10-benzyl-4-fluoro-2-{[(2R,7aS)-2-fluorotetrahydro-1H-pyrrolizin-7a(5H)-yl]methoxy}-9-methyl-9,10-dihydro-8H-7-oxa-1,3,6,10-tetraazacyclohepta[1,2,3-de]naphthalen-5-yl]-5-ethynyl-6-fluoronaphthalen-2-ol]",–,348 nM,1480 nM,4 nM,2.81 nM,–,–,480 nM
"CCc1c(F)ccc2cc(O)cc(-c3nc4c5c(nc(OC[C@@]67CCCN6C[C@H](F)C7)nc5c3F)N3CCCC[C@H]3C(C)O4)c12 (stereo partly drawn) [Example 75, 5-ethyl-6-fluoro-4-((5aS)-1-fluoro-11-(((2R,7aS)-2-fluorotetrahydro-1H-pyrrolizin-7a(5H)-yl)methoxy)-5-methyl-5,5a,6,7,8,9-hexahydro-4-oxa-3,9a, 10,12-tetraazabenzo[4,5]cyclohepta[1,2,3-de]naphthalen-2-yl)naphthalen-2-ol]",–,702 nM,1620 nM,1.76 nM,1.6 nM,–,–,349 nM
"Fc1c(-c2c(Cl)ccc3[nH]ncc23)nc2c3c(nc(OC[C@@]45CCCN4C[C@H](F)C5)nc13)N1CCCC[C@H]1CO2 [Example 78, (7S)-12-(5-chloro-1H-indazol-4-yl)-13-fluoro-16-[[(2R,8S)-2-fluoro-1,2,3,5,6,7-hexahydropyrrolizin-8-yl]methoxy]-9-oxa-2,11,15,17-tetrazatetracyclo [8.7.1.02,7.014,18]octadeca-1 (17),10 (18),11,13,15-pentaene]",–,> 3000 nM,> 3000 nM,40.2 nM,51.9 nM,–,–,> 3000 nM
